Source: ChEMBL document CHEMBL1130453, “Synthesis and biological activity of a new anti-factor Xa pentasaccharide with a C-interglycosidic bond” (Bioorg Med Chem Lett, 1997)

Key:
Antithrombin-III = Antithrombin-III (Homo sapiens, UniProt P01008); assay: In vitro binding affinity against antithrombin III (AT III) was determined by fluorescence spectroscopy
[1] = target: Coagulation factor X (Homo sapiens) (UniProt P00742); assay: Anti-factor Xa activity by amidolytic method.
Chain of Coagulation factor X (Homo sapiens) (P00742 41-179 limits assumed): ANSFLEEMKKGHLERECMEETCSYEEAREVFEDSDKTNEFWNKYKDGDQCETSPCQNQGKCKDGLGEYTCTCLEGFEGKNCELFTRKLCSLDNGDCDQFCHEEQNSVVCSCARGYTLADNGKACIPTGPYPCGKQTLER
Chain of Coagulation factor X (Homo sapiens) (P00742 235-488 limits assumed): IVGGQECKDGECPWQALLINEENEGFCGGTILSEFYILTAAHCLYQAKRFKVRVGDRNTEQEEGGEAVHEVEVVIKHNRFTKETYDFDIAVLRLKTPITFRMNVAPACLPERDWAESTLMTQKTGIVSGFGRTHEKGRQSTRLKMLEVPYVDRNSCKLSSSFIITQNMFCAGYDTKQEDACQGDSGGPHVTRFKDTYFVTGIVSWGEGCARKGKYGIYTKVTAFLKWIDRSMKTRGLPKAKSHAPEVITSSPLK

Chain of Antithrombin-III (P01008 whole entry): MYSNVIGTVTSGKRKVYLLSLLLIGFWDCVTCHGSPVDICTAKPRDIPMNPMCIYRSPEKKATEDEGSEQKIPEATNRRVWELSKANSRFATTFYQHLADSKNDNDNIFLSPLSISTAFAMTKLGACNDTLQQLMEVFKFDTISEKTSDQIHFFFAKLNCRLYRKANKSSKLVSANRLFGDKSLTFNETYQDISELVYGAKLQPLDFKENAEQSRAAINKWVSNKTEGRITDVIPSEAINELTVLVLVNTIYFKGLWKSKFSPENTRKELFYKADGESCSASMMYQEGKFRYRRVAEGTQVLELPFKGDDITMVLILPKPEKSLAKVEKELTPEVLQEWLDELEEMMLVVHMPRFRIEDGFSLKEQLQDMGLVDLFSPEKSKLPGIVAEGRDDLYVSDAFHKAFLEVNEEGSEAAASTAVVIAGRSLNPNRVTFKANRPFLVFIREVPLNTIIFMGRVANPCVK

CO[C@H]1O[C@@H](COS(=O)(=O)O)[C@@H](O[C@@H]2O[C@@H](C(=O)O)[C@H](O[C@H]3O[C@@H](COS(=O)(=O)O)[C@@H](O[C@@H]4O[C@@H](C(=O)O)[C@@H](C[C@H]5O[C@@H](COS(=O)(=O)O)[C@@H](OC)[C@H](OC)[C@@H]5OC)[C@H](OC)[C@@H]4OC)[C@H](OS(=O)(=O)O)[C@@H]3OS(=O)(=O)O)[C@H](OC)[C@H]2OC)[C@H](OS(=O)(=O)O)[C@@H]1OS(=O)(=O)O
Kd (Antithrombin-III): 2.8 nM
Anti-Factor Xa activity [1]: 880 U/mg

CO[C@H]1O[C@@H](COS(=O)(=O)O)[C@@H](O[C@@H]2O[C@@H](C(=O)O)[C@H](O[C@H]3O[C@@H](COS(=O)(=O)O)[C@@H](O[C@@H]4O[C@@H](C(=O)O)[C@@H](O[C@H]5O[C@@H](COS(=O)(=O)O)[C@@H](OC)[C@H](OC)[C@@H]5OC)[C@H](OC)[C@@H]4OC)[C@H](OS(=O)(=O)O)[C@@H]3OS(=O)(=O)O)[C@H](OC)[C@H]2OC)[C@H](OS(=O)(=O)O)[C@@H]1OS(=O)(=O)O
Anti-Factor Xa activity [1]: 1180 U/mg
